This is an account of results in patent US20030135033A1, “Compounds and methods for the identification and/ or validation of a target” (priority 2002, published 2003).

d = 2'-deoxy (DNA); m = 2'-O-methyl

One data set deals with PI 3-kinase. Put plainly: Akt phosphorylation induced by PTEN GeneBlocs in 3Y1 cells in presence of PI 3-kinase inhibitor. It is filed as cell-based, rat. The note with it: 30 nM PTEN 53 or 57, 48 h, 10 μM LY294002 30 min before lysis.
A further data set relates to MEK. In words: Akt phosphorylation induced by PTEN GeneBlocs in 3Y1 cells in presence of MEK inhibitor. It counts as cell-based, rat. The note with it: 30 nM PTEN 53 or 57, 48 h, 50 μM PD98059 30 min before lysis. Here is the method:
In this experiment two different antisense oligonucleotides (PTEN 53 and PTEN 57) were used together with further compounds, namely DMSO (D), Ly294002 (Ly) and PD98059 (PD) being an inhibitor for MEK-½ kinase. More particularly, the first test was carried out using the antisense oligonucleotide PTEN 53 in combination either with DMSO, LY or PD. The same experiment was carried out using PTEN 57 also directed against PTEN mRNA, and using GBC as defined above as a control antisense oligonucleotide. More particularly, 3Y1 cells on 10 cm plates were transfected in triplicates with 30 nM of the GeneBlocs PTEN 53, 57 or with GBC for 48 h. 30 min before lysis the cells were treated with 10 μM PI 3-kinase inhibitor LY294002 (LY), 50 μM MEK inhibitor PD98059 (PD) or with the vehicle DMSO (D). The positions of p110, phosphorylated Akt (P*-Akt) and PTEN are indicated on the right. […]
Pools of stably transfected HeLa cells in growth medium were stimulated with 200 nM 4-OHT in dimethylsulfoxide (DMSO) or with DMSO at 37° C. for 20 h. In experiments in which the effect of LY294002 or PD98059 was analyzed, the reagents were added in DMSO at 10 μg/ml or 50 μg/ml 30 min to 1 h before lysis. […]

The next data set deals with Hela cells. In words: Cell growth on matrigel. To be noted: 48 h transfection, then 48 to 72 h on matrigel, versus control GeneBloc. It counts as cell-based, human. From the text:
More particularly, a schematic pathway with PTEN inhibiting PI-3K activity is shown which would normally phosphorylate Akt thus leading to proliferation, survival and migration of HeLa cells as a model system for PTEN +/+ cells. FIG. 9 B presents the Western immunoblot analysis of an experiment studying the influence of PTEN specific antisense oligonucleotide or a control antisense nucleotide designated as mismatch GeneBloc™. PTEN is only present in the control sample, but is absent when PTEN-specific antisense oligonucleotides are used. The successful knockdown of PTEN causes phosphorylation of Akt, indicative of induction of the signalling pathway. […] Growth on matrigel is used as a surrogate in vitro assay for metastatic or invasive cell growth. […]
Loss of PTEN function has been correlated with an increased metastatic growth potential in late stage human cancers (Cantley, L. C. and Neel, B. G. (1999). New insights into tumor suppression: PTEN suppresses tumor formation by restraining the phosphoinositide 3-kinase/AKT pathway. Proc Natl Acad Sci U S A 96, 4240-4245; Ali, I. U. (2000). Gatekeeper for endometrium: the PTEN tumor suppressor gene. J Natl Cancer Inst 92, 861-863). […] HeLa cells expressing an inducible version of a constitutively active PI 3-kinase, p110* […] were analyzed in parallel. […]

Regarding `O=c1cc(N2CCOCC2)oc2c(-c3ccccc3)cccc12` [LY294002, 2-(4-morpholinyl)-8-phenylchromone], the “increase in Akt phosphorylation induced by the PTEN GeneBlocs” value in the data set with PI 3-kinase is “completely abrogated”. Turning to `COc1cccc(-c2cc(=O)c3ccccc3o2)c1N` [PD98059], the “increase in Akt phosphorylation induced by the PTEN GeneBlocs” value in the data set with MEK is given as “had no effect”.

Regarding “cuggaucAGAGTCAGTgguguca (CUGGAUCAGAGTCAGTGGUGUCA; sugars from the 5' end m7 d9 m7, backbone and methylation of C not given here; DNA gap phosphorothioate-linked, ends capped, inverted abasic or similar, further chemistry not fully specified) [PTEN 52, third generation antisense oligonucleotide (GeneBloc) against PTEN]”, the growth on matrigel entry in the data set with Hela cells is “increased potential to form network structures on matrigel and grew better”.
